Laboratory results reported in patent publication US12331033B2, “Inhibitors of SARM1” (Disarm Therapeutics, Inc., priority 2020, dated 2025).

What follows are compounds tested against SARM1 (ARM-SAM-TIR) (Homo sapiens (Human), UniProt Q6SZW1) (assay: ARM-SAM-TIR SARM1 IC50 assay (NADase activity, NAD+ cleavage, RapidFire MS)). Conditions: ARM-SAM-TIR lysate 5 μg/mL, 2 h pre-incubation, 5 μM NAD+, 2 hr room temperature.
Format: biochemical
Method in brief: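 Lysate of NRK1-HEK293T cells transfected with full-length ARM-SAM-TIR SARM1 (5 μg/mL final) pre-incubated with compound (1% DMSO) 2 h at room temperature in Dulbecco's PBS. Reaction started with 5 μM NAD+, run 2 hr at room temperature, then stopped with TCA/acetonitrile. NAD+ and ADPR quantified by RapidFire MS.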

SARM1 (ARM-SAM-TIR), sequence (Q6SZW1 other isoform, or with tags, fused parts or gaps): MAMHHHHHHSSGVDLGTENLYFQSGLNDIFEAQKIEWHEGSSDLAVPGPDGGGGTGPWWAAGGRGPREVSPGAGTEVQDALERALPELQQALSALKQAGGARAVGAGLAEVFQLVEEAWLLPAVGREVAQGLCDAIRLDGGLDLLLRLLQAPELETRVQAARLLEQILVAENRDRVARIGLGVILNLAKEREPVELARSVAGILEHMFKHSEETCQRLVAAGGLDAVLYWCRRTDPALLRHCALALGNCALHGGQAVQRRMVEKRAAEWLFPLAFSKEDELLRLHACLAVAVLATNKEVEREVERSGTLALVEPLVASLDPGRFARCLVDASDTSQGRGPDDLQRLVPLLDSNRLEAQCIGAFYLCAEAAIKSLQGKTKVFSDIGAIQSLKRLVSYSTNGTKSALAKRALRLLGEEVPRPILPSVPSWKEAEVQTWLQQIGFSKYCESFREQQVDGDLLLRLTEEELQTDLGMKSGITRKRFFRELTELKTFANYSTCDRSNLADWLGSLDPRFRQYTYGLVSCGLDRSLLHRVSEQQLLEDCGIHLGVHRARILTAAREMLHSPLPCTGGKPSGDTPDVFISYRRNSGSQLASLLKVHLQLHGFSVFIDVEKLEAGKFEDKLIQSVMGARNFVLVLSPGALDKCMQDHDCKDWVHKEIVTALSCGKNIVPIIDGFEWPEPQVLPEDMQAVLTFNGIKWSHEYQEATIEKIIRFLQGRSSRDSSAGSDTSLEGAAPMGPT

Structure (SMILES) | IC50 [µM]
O=C(CCc1ccc(Cl)c(F)c1)Nc1nnc(-c2ccnnc2)[nH]1 [Example 13] | < 5
Cc1ccc(CCC(=O)Nc2[nH]nc(-c3ccncc3F)c2C)cn1 [Example 307] | < 5
NC(Cc1ccc(Cl)c(F)c1)C(=O)Nc1cc(-c2ccncc2)n[nH]1 (stereo not shown) [Example 175] | < 5
O=C(CC1CNc2cc(Cl)ccc21)Nc1nnc(-c2ccncc2)[nH]1 (stereo not shown) [Example 283] | < 5
O=C(Nc1nnc(-c2ccncc2)[nH]1)C12CC(c3ccccc3)(C1)C2 [Example 66] | < 5
O=C(C[C@H]1CCOc2nc(Cl)ccc21)Nc1nnc(-c2ccncc2)[nH]1 [Example 232] | < 5
Cc1c(-c2ccncc2F)n[nH]c1NC(=O)CCc1ccc(Cl)cc1 [Example 313] | < 5
